Results from ChEMBL document CHEMBL3611986, “Reversal of P-gp and BCRP-mediated MDR by tariquidar derivatives” (Eur J Med Chem, 2015).
Active and inactive are the calls of the source. The calls are words filed in the database; no cut-off is given here.

Columns and labels:
SW-620 [1] = assay: Cytotoxicity against human SW620 cells assessed as cell viability after 48 hrs by MTT assay; format: cell-based; settings: SW-620, 48 h
[2] = Cytotoxicity against human HFE cells assessed as cell viability after 72 hrs by MTT assay; format: cell-based
[3] = target: T1, Broad substrate specificity ATP-binding cassette transporter ABCG2 (Homo sapiens, UniProt Q9UNQ0); assay: Induction of 5D3 antibody binding to BCRP in human K562 cells at 0.5 uM preincubated for 10 mins followed by antibody addition measured after 45 mins by flow cytometry relative to tariquidar; format: cell-based; settings: k562, 0.75 h
T1 sequence (Q9UNQ0 whole entry): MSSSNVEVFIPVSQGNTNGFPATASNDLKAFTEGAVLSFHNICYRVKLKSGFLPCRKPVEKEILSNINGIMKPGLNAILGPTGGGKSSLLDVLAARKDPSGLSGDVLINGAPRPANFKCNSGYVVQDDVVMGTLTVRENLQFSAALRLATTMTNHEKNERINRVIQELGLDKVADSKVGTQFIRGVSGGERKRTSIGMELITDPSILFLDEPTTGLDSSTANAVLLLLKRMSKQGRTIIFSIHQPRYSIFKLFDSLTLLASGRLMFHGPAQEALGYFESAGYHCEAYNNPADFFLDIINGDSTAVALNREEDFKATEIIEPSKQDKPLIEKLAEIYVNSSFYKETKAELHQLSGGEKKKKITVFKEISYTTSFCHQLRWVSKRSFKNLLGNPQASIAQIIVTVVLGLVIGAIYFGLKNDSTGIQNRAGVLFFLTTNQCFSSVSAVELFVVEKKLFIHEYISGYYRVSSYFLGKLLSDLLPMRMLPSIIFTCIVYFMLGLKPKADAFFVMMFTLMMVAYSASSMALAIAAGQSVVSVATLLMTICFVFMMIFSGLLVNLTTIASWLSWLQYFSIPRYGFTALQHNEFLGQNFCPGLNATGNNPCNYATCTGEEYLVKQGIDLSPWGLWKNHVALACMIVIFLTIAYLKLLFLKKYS

HCT-116 = assay: Cytotoxicity against human HCT116 cells assessed as cell viability after 48 hrs by MTT assay; format: cell-based; settings: HCT-116, 48 h
[4] = target: Multidrug resistance-associated protein 1 (Homo sapiens, UniProt P33527); assay: Inhibition of MRP1 (unknown origin)-mediated calcein-AM efflux expressed in HEK293/MRP1 cells at 0.5 uM after 1 hr by flow cytometry; format: cell-based; settings: hek293/mrp1, 1 h
[5] = Cytotoxicity against human CCD-18Co cells assessed as cell viability after 48 hrs by MTT assay; format: cell-based
K562 [6] = assay: Induction of UIC2 antibody binding to p-glycoprotein in human K562 cells at 0.5 uM preincubated for 10 mins followed by antibody addition measured after 45 mins by flow cytometry relative to tariquidar; format: cell-based
[7] = Cytotoxicity against human SW620/AD300 cells assessed as cell viability after 48 hrs by MTT assay; format: cell-based; settings: SW-620, 48 h
[8] = target: T2, ATP-dependent translocase ABCB1 (Homo sapiens, UniProt P08183); assay: Inhibition of p-glycoprotein-mediated doxorubicin efflux in human K562/p-gp cells at 1 uM after 1 hr by flow cytometry; format: cell-based
[9] = Cytotoxicity against human LCC6 cells at 200 nM after 72 hrs by SRB assay; format: cell-based; settings: lcc6, 72 h, 0.2 µM
[10] = target: T2, ATP-dependent translocase ABCB1; assay: Inhibition of p-glycoprotein in human LCC6/MDR cells assessed as increase of paclitaxel-induced cytotoxicity at 200 nM after 72 hrs by SRB assay relative to control; format: cell-based; settings: 0.2 µM
[11] = target: T2, ATP-dependent translocase ABCB1; assay: Inhibition of p-glycoprotein-mediated rhodamine-123 efflux in human K562/p-gp cells after 1 hr by flow cytometry; format: cell-based
[12] = Cytotoxicity against human LCC6 cells expressing p-glycoprotein at 200 nM after 72 hrs by SRB assay; format: cell-based; settings: lcc6, 72 h, 0.2 µM
[13] = target: T2, ATP-dependent translocase ABCB1; assay: Inhibition of p-glycoprotein-mediated rhodamine-123 efflux in human K562/p-gp cells at 0.5 uM after 1 hr by flow cytometry relative to tariquidar; format: cell-based; settings: 1 h, 0.5 µM
Hepatocyte = assay: Cytotoxicity against rat hepatocytes assessed as cell viability after 72 hrs by MTT assay; format: cell-based
[14] = Potentiation of paclitaxel-induced cytotoxicity against human LCC6 cells at 200 nM after 72 hrs by SRB assay relative to control; format: functional
K562 [15] = assay: Effect on rhodamine-123 efflux in wild type human K562 cells at 0.5 uM after 1 hr by flow cytometry; format: ADME, cell-based; settings: k562, 1 h
Homo sapiens = organism: Homo sapiens; assay: Inhibition of p-glycoprotein (unknown origin) expressed in High five insect cell membranes assessed as ATP hydrolysis after 20 mins by colorimetric ATPase assay
[16] = Cytotoxicity against human SW620/AD300 cells expressing p-glycoprotein at 200 nM after 72 hrs by SRB assay; format: cell-based; settings: sw-620, 72 h, 0.2 µM
MCF7 [17] = assay: Cytotoxicity against human MCF7 cells at 200 nM after 72 hrs by SRB assay; format: cell-based; settings: mcf7, 72 h, 0.2 µM
[18] = target: T2, ATP-dependent translocase ABCB1; assay: Inhibition of p-glycoprotein in human HepG2 cells assessed as increase of doxorubicin-induced cytotoxicity at 200 nM after 72 hrs by SRB assay relative to control; format: cell-based; settings: hepg2, 72 h, 0.2 µM
SW-620 [19] = assay: Potentiation of doxorubicin-induced cytotoxicity against human SW620 cells at 200 nM after 72 hrs by SRB assay relative to control; format: functional
HepG2 [20] = assay: Cytotoxicity against human HepG2 cells expressing p-glycoprotein at 200 nM after 72 hrs by SRB assay; format: cell-based; settings: hepg2, 72 h, 0.2 µM
BCRP (ABCG2) = target: T3, BCRP (ABCG2) (Homo sapiens, UniProt Q9UNQ0); assay: Inhibition of BCRP-mediated pheophorbide-A efflux in human K562/BCRP cells at 0.5 uM after 1 hr by flow cytometry; format: cell-based; settings: K562/BCRP cells, probe pheophorbide-A
T3 sequence (Q9UNQ0 whole entry): T1 sequence (Q9UNQ0 whole entry)

[21] = target: T1, Broad substrate specificity ATP-binding cassette transporter ABCG2; assay: Induction of BCRP (unknown origin) expressed in High five insect cell membranes assessed as ATP hydrolysis after 10 mins by colorimetric ATPase assay
HepG2 [22] = assay: Potentiation of doxorubicin-induced cytotoxicity against human HepG2 cells at 200 nM after 72 hrs by SRB assay relative to control; format: functional
[23] = Cytotoxicity against human MCF-7 FLV1000 cells expressing BCRP at 200 nM after 72 hrs by SRB assay; format: ADME, cell-based; settings: mcf-7 flv1000, 72 h, 0.2 µM
[24] = target: T2, ATP-dependent translocase ABCB1; assay: Inhibition of p-glycoprotein in human SW620/AD300 cells assessed as increase of doxorubicin-induced cytotoxicity at 200 nM after 72 hrs by SRB assay relative to control; format: cell-based; settings: sw-620, 72 h, 0.2 µM
[25] = target: T1, Broad substrate specificity ATP-binding cassette transporter ABCG2; assay: Inhibition of BCRP in human MCF-7 FLV1000 cells assessed as increase of mitoxantrone-induced cytotoxicity at 200 nM after 72 hrs by SRB assay relative to control; format: cell-based; settings: 0.2 µM
MCF7 [26] = assay: Potentiation of mitoxantrone-induced cytotoxicity against human MCF7 cells at 200 nM after 72 hrs by SRB assay relative to control; format: functional
HepG2 [27] = assay: Cytotoxicity against human HepG2 cells at 200 nM after 72 hrs by SRB assay; format: cell-based; settings: hepg2, 72 h, 0.2 µM
SW-620 [28] = assay: Cytotoxicity against human SW620 cells at 200 nM after 72 hrs by SRB assay; format: cell-based; settings: sw-620, 72 h, 0.2 µM

T2 sequence (P08183 whole entry): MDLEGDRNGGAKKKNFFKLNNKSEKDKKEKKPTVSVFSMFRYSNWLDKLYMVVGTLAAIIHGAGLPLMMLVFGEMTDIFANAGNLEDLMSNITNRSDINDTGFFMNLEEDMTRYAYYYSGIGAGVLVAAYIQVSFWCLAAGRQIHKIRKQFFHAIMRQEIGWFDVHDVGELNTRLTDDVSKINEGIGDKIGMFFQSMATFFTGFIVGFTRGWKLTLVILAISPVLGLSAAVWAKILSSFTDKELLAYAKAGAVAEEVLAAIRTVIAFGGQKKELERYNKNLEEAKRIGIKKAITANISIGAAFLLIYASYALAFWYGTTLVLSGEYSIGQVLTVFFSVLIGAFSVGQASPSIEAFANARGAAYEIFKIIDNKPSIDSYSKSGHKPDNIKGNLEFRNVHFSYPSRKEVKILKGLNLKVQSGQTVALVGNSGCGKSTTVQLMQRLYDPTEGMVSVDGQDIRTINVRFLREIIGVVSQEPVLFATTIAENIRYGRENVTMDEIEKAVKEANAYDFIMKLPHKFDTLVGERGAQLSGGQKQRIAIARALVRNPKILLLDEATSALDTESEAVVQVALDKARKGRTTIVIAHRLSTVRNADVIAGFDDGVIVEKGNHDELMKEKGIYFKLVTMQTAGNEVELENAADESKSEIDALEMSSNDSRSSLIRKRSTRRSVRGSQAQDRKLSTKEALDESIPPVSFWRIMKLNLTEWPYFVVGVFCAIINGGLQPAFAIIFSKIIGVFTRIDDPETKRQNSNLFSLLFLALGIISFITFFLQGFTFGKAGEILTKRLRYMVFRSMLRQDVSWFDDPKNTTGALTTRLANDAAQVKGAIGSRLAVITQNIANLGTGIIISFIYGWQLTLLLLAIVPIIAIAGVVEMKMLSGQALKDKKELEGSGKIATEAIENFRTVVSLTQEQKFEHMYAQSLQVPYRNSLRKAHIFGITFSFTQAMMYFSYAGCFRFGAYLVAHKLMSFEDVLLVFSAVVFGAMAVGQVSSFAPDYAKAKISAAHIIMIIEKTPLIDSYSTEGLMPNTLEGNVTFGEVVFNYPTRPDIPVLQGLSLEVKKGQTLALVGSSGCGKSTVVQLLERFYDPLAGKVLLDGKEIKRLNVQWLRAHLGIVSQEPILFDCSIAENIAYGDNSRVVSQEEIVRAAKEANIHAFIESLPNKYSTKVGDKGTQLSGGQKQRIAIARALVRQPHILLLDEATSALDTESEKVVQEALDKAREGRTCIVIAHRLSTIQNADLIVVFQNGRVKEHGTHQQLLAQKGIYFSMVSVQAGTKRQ
Sequence of Multidrug resistance-associated protein 1 (P33527 whole entry): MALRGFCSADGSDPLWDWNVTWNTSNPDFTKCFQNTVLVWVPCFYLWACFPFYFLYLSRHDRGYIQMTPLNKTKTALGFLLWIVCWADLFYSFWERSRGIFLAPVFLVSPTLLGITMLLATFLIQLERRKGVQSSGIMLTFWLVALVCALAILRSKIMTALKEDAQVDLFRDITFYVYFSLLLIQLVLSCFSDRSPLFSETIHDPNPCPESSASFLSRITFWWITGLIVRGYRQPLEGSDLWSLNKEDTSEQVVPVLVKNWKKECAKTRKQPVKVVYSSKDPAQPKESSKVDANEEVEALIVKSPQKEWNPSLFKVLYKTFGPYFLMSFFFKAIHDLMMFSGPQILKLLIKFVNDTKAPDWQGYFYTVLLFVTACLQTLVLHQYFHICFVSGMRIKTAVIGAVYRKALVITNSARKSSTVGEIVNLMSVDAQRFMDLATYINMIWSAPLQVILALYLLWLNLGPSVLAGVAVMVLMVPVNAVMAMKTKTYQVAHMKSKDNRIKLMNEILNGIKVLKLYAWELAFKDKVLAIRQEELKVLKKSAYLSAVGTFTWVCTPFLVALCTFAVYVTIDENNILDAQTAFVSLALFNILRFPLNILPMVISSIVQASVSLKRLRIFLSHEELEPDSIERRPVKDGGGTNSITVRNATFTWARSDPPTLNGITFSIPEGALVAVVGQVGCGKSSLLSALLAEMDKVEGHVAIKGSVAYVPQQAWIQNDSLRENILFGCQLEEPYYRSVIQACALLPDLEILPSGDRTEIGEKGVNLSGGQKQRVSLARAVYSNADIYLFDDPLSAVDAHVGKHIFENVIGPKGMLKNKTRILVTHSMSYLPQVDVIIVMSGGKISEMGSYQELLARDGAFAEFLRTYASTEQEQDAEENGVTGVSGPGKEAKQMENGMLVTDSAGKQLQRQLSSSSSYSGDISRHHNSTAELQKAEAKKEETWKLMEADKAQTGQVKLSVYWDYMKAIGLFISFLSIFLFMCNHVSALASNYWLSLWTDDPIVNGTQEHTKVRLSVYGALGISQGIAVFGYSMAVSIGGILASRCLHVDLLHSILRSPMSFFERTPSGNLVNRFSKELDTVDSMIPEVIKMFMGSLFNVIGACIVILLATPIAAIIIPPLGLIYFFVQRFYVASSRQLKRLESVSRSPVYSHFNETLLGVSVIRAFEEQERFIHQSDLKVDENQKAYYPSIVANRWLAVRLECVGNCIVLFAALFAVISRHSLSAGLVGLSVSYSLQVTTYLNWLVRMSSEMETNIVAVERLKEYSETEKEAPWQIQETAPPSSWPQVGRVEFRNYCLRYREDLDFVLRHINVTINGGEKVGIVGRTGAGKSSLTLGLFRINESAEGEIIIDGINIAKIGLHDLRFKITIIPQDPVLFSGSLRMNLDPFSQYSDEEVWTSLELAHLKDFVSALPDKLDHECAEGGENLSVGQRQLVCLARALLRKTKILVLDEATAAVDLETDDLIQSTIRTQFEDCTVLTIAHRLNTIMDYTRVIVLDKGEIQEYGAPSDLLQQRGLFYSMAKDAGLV

Activity [3]	inhibition (INH) [4]	inhibition (INH) [8]	inhibition (INH) [11]	inhibition (INH) [13]	SMILES	IC50 (SW-620 [1])	IC50 [2]	IC50 (HCT-116)	IC50 [5]	Activity (K562 [6])	IC50 [7]	Activity [9]	fold change (FC) [10]	Activity [12]	fold change (FC) [14]	Activity (K562 [15])	inhibition (Homo sapiens)	other results
Not Active	Not Active	Active			COc1cc2c(cc1OC)CN(CCc1ccc(NC(=O)c3ccccc3NS(=O)(=O)c3ccc(C(C)(C)C)cc3)cc1)CC2	> 100 µM	> 100 µM	> 100 µM	> 100 µM	inactive	> 100 µM							
	Not Active	Active	Dose-dependent effect	Active	COc1cc2c(cc1OC)CN(CCc1ccc(NC(=O)c3ccccc3N(S(=O)(=O)c3ccc(Br)cc3)S(=O)(=O)c3ccc(Br)cc3)cc1)CC2	> 100 µM	> 5 µM	> 100 µM	> 100 µM	47%	> 100 µM	Non-toxic	36	Non-toxic	1.3	Non-toxic	Dose-dependent effect	Activity (Hepatocyte; rat, hepatocytes): Non-toxic
119.1%	Not Active		Dose-dependent effect	Active	COc1cc2c(cc1OC)CN(CCc1ccc(NC(=O)c3ccccc3NC(=O)c3ccc(F)cc3[N+](=O)[O-])cc1)CC2	> 100 µM	> 10 µM	> 100 µM	> 100 µM	57.3%	> 100 µM	Non-toxic	35	Non-toxic	1.1	Non-toxic	Dose-dependent effect	Activity [16]: Non-toxic; Activity (MCF7 [17]): Non-toxic; fold change (FC) [18]: 0.36; fold change (FC) (SW-620 [19]): 1.6; Activity (HepG2 [20]): Non-toxic; inhibition at 1 h, 0.5 µM (BCRP (ABCG2)): 60%; Activity [21]: Active; IC50 (Hepatocyte; Rattus norvegicus, Hepatocyte): 100 µM; fold change (FC) (HepG2 [22]): 0.76; Activity [23]: Non-toxic; fold change (FC) [24]: 3.62; fold change (FC) [25]: 46; fold change (FC) (MCF7 [26]): 1.7; Activity (HepG2 [27]): Non-toxic; Activity (SW-620 [28]): Non-toxic
